Results on two compounds are retold here after patent US9062124B2, “GIP-based mixed agonists for treatment of metabolic disorders and obesity” (priority 2008, dated 2015).

Where a SMILES comes first, the peptide text is derived from it. Bridges are numbered along the chain shown (N, C = ends). [ ]: non-standard residue; d: D form. Aib = CC(C)(N)C(=O)O

What all share (type): cell-based
For one assay, the target named is T1, GLP-1 receptor (Homo sapiens, UniProt P43220).
T1 construct: expressed in transfected cells; host or cells: HEK293
T1 sequence (P43220 24-463, species assumed): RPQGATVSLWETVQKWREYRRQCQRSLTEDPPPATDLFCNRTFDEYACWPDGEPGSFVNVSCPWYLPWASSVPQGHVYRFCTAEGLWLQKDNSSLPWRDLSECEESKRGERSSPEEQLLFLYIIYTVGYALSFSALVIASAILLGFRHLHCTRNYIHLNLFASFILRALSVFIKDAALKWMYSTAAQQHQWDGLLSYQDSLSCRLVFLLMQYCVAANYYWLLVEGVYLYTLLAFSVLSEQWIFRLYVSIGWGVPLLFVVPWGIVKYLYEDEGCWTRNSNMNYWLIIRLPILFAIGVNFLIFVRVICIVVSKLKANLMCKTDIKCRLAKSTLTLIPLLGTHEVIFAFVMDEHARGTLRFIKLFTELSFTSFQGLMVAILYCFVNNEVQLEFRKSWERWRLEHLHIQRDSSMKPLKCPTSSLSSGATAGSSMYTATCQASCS
Briefly: cAMP synthesis functional assay (firefly luciferase reporter in HEK293 cells), GLP-1 receptor. As to conditions: Table 1; for GLP-1 Receptor relative activity: relative to the native hormone of the indicated receptor.

For a further assay, the target named is T2, GIP receptor (Homo sapiens, UniProt P48546).
T2 construct: expressed in transfected cells; host or cells: HEK293
T2 sequence (P48546 22-466): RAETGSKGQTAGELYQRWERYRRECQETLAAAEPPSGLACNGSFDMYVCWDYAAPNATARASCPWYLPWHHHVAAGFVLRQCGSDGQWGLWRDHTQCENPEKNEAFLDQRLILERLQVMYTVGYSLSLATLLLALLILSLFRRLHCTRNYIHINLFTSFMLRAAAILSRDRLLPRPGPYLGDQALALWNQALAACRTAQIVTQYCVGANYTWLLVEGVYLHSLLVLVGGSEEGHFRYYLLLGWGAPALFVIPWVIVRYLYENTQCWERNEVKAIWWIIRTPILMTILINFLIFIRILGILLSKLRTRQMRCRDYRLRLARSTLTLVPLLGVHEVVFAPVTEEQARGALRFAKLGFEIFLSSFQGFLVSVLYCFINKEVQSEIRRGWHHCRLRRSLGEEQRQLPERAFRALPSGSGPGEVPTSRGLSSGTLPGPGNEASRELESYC
In words: cAMP synthesis functional assay (firefly luciferase reporter in HEK293 cells), GIP receptor. The note with it: Table 1; for GIP Receptor relative activity: relative to the native hormone of the indicated receptor. Background: Reporter assays use an easily measured gene product as a stand-in for the process of interest.

The target in the next assay is T3, glucagon receptor (Homo sapiens, UniProt P47871).
T3 construct: expressed in transfected cells; host or cells: HEK293
T3 sequence (P47871 26-477): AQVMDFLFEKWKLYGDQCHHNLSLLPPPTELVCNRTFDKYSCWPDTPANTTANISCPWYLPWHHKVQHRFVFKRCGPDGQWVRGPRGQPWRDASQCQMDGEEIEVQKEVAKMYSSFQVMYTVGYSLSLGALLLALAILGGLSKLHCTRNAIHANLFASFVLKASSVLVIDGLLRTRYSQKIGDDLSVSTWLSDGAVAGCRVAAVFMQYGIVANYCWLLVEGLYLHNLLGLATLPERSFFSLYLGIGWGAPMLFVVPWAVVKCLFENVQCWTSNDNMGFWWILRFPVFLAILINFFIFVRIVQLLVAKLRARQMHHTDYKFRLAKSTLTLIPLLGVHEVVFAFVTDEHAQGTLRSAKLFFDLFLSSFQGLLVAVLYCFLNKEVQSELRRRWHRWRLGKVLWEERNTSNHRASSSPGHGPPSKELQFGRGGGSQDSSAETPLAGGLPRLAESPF
Briefly: cAMP synthesis functional assay (firefly luciferase reporter in HEK293 cells), glucagon receptor. As to conditions: Table 1; relative to the native hormone of the indicated receptor.

In assay [1] the test system is glucagon receptor, GLP-1 receptor or GIP receptor. Briefly: Agonist profile across receptors assigned from the cAMP reporter assay data. The note with it: assigned from the in vitro EC50 data of Tables 1-4.

The term EC50 denotes the midpoint of the concentration-response curve. Read a low EC50 as greater potency. With `CC[C@H](C)[C@H](NC(=O)[C@H](CO)NC(=O)[C@H](Cc1ccc(O)cc1)NC(=O)[C@H](CC(=O)O)NC(=O)[C@H](CO)NC(=O)[C@@H](NC(=O)[C@H](Cc1ccccc1)NC(=O)[C@@H](NC(=O)CNC(=O)[C@H](CCC(N)=O)NC(=O)C(C)(C)NC(=O)[C@@H](N)Cc1ccc(O)cc1)[C@@H](C)O)[C@@H](C)O)C(=O)N[C@@H](Cc1ccc(O)cc1)C(=O)N[C@@H](CC(C)C)C(=O)N[C@@H](CC(=O)O)C(=O)N[C@H]1CCC(=O)NCCCC[C@@H](C(=O)N[C@@H](CCC(=O)O)C(=O)N[C@@H](Cc2ccccc2)C(=O)N[C@H](C(=O)N[C@@H](CC(N)=O)C(=O)N[C@@H](Cc2c[nH]c3ccccc23)C(=O)N[C@@H](CC(C)C)C(=O)N[C@@H](CC(C)C)C(=O)N[C@@H](C)C(=O)NCC(N)=O)C(C)C)NC(=O)[C@H](C)NC(=O)[C@H](C)NC(=O)[C@H](CCC(N)=O)NC1=O` [mt-164] (H-Y[Aib]QGTFTSDYSIYLDEQAAKEFVNWLLAG-NH2; lactam 16-20; N-terminus assumed), the “GLP-1 Receptor relative activity” value at GLP-1 receptor is reported as 56.52%. The EC50 on GIP receptor (GIP Receptor EC50, nM) came out at 0.164 nM. Further, the “GIP Receptor relative activity” value at GIP receptor is 16.46%. Moreover, the “Glucagon Receptor relative activity” value on glucagon receptor is given as 109.93%. Moreover, the “receptor activity profile (glucagon / GLP-1 / GIP agonism)” value in assay [1] was “exemplary GLP-1/GIP/glucagon triagonist peptides”.

With `CC[C@H](C)[C@H](NC(=O)[C@H](CC(C)C)NC(=O)[C@H](Cc1c[nH]c2ccccc12)NC(=O)[C@H](CC(N)=O)NC(=O)[C@@H](NC(=O)[C@H](Cc1ccccc1)NC(=O)[C@H](CCC(=O)O)NC(=O)[C@@H]1CCCCNC(=O)CC[C@H](NC(=O)[C@H](CC(=O)O)NC(=O)[C@H](CC(C)C)NC(=O)[C@H](Cc2ccc(O)cc2)NC(=O)[C@H](Cc2ccc(O)cc2)NC(=O)[C@H](CO)NC(=O)[C@H](Cc2ccc(O)cc2)NC(=O)[C@H](CC(=O)O)NC(=O)[C@H](CO)NC(=O)[C@@H](NC(=O)[C@H](Cc2ccccc2)NC(=O)[C@@H](NC(=O)CNC(=O)[C@H](CCC(N)=O)NC(=O)C(C)(C)NC(=O)[C@@H](N)Cc2ccc(O)cc2)[C@@H](C)O)[C@@H](C)O)C(=O)N[C@@H](CCC(N)=O)C(=O)N[C@@H](C)C(=O)N[C@@H](C(C)C)C(=O)N1)C(C)C)C(=O)N[C@@H](C)C(=O)NCC(=O)NCC(=O)N1CCC[C@H]1C(=O)N[C@@H](CO)C(=O)N[C@@H](CO)C(=O)NCC(=O)N[C@@H](C)C(=O)N1CCC[C@H]1C(=O)N1CCC[C@H]1C(=O)N1CCC[C@H]1C(=O)N[C@@H](CO)C(N)=O` [mt-162] (H-Y[Aib]QGTFTSDYSYYLDEQAVKEFVNWLIAGGPSSGAPPPS-NH2; lactam 16-20; N-terminus assumed), on GLP-1 receptor (GLP-1 Receptor EC50, nM), the response was half-maximal at 0.011 nM (EC50). For the same compound, the “GLP-1 Receptor relative activity” value on GLP-1 receptor is reported as 109.09%. The “GIP Receptor relative activity” value at GIP receptor came out at 25.74%. Moreover, at glucagon receptor, the “Glucagon Receptor relative activity” value is listed as 0.97%. Besides, the “receptor activity profile (glucagon / GLP-1 / GIP agonism)” value in assay [1] is “exemplary GLP-1/GIP co-agonist peptides”.
